Laboratory results as given in patent publication US10988477B2 (Merck Patent GmbH, priority 2018, dated 2021).

What was measured:
[1] = target: GCN2 kinase (Homo sapiens, UniProt Q9P2K8); experiment: GCN2 enzyme inhibition assay (Transcreener ADP2 fluorescence polarization); type: biochemical; details: 280 μM ATP
How it was run: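 Inhibition of 4 nM GCN2 was measured with compound up to 8 μM final, ATP 280 μM and (RS)7 peptide 200 μM over a 1 h, 25 °C reaction. ADP FP readout; IC50 and Ki(app) calculated from percent inhibition.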

[2] = target: intracellular GCN2 (phosphorylation of the GCN2 substrate eIF2α) (Homo sapiens, UniProt Q9P2K8); experiment: GCN2 cellular inhibition assay (AlphaScreen SureFire P-eIF2α Ser51, borrelidin-treated U2OS cells); type: cell-based; details: biomarker assay, phosphorylated eIF2α Ser51 in borrelidin-treated U2OS cells
intracellular GCN2 (phosphorylation of the GCN2 substrate eIF2α), sequence (Q9P2K8 whole entry): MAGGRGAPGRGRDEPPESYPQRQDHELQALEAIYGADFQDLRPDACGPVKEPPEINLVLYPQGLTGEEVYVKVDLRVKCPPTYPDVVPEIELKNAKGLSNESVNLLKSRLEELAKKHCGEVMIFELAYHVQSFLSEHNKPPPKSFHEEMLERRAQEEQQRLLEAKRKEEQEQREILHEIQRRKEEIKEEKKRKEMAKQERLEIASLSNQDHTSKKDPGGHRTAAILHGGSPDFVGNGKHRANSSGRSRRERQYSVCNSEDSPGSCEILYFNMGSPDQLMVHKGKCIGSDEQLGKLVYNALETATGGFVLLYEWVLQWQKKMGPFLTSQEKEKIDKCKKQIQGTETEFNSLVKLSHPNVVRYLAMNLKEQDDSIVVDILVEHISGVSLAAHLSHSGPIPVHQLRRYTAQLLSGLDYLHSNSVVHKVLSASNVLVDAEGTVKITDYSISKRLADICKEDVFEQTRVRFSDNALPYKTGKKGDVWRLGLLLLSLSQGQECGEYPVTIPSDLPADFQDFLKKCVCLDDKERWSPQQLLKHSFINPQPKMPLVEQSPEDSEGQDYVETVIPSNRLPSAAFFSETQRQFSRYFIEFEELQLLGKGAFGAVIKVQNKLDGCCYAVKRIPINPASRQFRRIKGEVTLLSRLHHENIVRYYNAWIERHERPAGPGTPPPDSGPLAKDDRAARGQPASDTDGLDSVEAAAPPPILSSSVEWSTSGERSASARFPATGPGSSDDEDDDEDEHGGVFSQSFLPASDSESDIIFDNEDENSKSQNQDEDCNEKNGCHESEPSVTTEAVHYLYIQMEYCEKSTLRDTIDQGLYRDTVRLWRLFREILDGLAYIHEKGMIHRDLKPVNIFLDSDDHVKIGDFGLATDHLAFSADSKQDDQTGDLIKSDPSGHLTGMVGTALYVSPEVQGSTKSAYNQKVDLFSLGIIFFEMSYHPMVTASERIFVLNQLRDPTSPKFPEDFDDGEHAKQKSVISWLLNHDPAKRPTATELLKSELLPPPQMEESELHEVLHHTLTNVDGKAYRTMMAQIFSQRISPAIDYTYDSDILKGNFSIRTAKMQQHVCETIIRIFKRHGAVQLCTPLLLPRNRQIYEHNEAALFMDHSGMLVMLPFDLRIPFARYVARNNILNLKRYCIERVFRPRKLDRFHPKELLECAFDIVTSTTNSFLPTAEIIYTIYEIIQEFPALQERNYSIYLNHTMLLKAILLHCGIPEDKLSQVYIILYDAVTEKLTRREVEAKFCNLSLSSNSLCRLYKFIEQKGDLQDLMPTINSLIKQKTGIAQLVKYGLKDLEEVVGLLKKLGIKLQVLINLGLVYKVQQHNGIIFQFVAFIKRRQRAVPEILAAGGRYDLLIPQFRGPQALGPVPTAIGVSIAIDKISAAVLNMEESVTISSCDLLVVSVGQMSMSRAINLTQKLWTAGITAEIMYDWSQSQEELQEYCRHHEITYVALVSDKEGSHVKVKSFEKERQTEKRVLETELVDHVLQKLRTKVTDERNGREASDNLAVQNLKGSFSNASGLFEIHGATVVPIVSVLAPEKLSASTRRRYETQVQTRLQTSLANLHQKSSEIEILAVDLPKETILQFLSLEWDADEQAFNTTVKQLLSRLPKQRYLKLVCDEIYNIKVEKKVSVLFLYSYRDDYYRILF
How it was run: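 First, U2OS cells are plated and left overnight at 37 °C. Next, compounds (from 40 μM final, 4-fold steps) and 10 μM borrelidin are added for 1 h, cells lysed, and phospho-Ser51 eIF2α detected by AlphaScreen bead sandwich. Inhibition is computed versus borrelidin-only wells.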

[3] = compounds of Formula II, 4 nM GCN2 kinase
[4] = Enzyme activity for compounds of Formula IV, Ki(app), 25° C.

GCN2 kinase, sequence (Q9P2K8 whole entry): as above

Compound | Ki [1, 3] | IC50 ([2]; compounds of Formula II) | Ki [1, 4] | IC50 ([2]; compounds of Formula IV) | further results
CC1CN(c2cc(-c3cnc4ccc(C(F)F)nn34)ncn2)CC(CNS(C)(=O)=O)O1 (stereo not shown) [II-32, N-((4-(6-(6-(Difluoromethyl)imidazo[1,2-b]pyridazin-3-yl)pyrimidin-4-yl)-6-methylmorpholin-2-yl)methyl)methanesulfonamide] | < 0.01 µM | < 0.5 µM | – | – | –
OC1CCN(c2ccnc(-c3cnc4cnc(C(F)(F)F)cn34)n2)CC1c1cn[nH]c1 (single isomer, unassigned) [IV-621, 3-(1H-Pyrazol-4-yl)-1-(2-(6-(trifluoromethyl)imidazo[1,2-a]pyrazin-3-yl)pyrimidin-4-yl)piperidin-4-ol] | – | – | < 0.01 µM | 0.5 to 5 µM | –
C[C@H]1[C@@H](CO)CCCN1c1cc(-c2cnc3ccc(C(F)F)nn23)ncn1 (single isomer, unassigned) [II-392] | 0.01 to 1 µM | 0.5 to 5 µM | – | – | –
OCC1CCN(c2ccnc(-c3cnc4cnc(C(F)(F)F)cn34)n2)CC1 [IV-443, (1-(2-(6-(Trifluoromethyl)imidazo[1,2-a]pyrazin-3-yl)pyrimidin-4-yl)piperidin-4-yl)methanol] | – | – | 0.1 to 1 µM | > 5 µM | –
C[C@H]1[C@H](CNS(C)(=O)=O)N(C2CC2)CCN1c1cc(-c2cnc3ccc(C(F)F)nn23)ncn1 [II-769, N-(((2S,3S)-1-cyclopropyl-4-(6-(6-(difluoromethyl)imidazo[1,2-b]pyridazin-3-yl)pyrimidin-4-yl)-3-methylpiperazin-2-yl)methyl)methanesulfonamide] | – | 0.5 to 5 µM | – | – | IC50 [1, 3]: 0.01 to 1 µM
C[C@@H]1CN(c2ccnc(-c3cnc4cnc(C(F)(F)F)cn34)n2)C[C@@H](c2cn[nH]c2)O1 (racemic) [IV-11, Trans-2-Methyl-6-(1H-pyrazol-4-yl)-4-(2-(6-(trifluoromethyl)imidazo[1,2-a]pyrazin-3-yl)pyrimidin-4-yl)morpholine] | – | – | 0.01 to 0.1 µM | 0.5 to 5 µM | –
CC1C(c2cn[nH]c2)OCCN1c1ccnc(-c2cnc3cnc(Cl)cn23)n1 (single isomer, unassigned) [IV-245, 4-(2-(6-Chloroimidazo[1,2-a]pyrazin-3-yl)pyrimidin-4-yl)-3-methyl-2-(1H-pyrazol-4-yl)morpholine] | – | – | 0.1 to 1 µM | > 5 µM | –
CN(C)CC(=O)N(CC1CCCN(c2cc(-c3cnc4ccc(C(F)F)nn34)ncn2)C1)S(C)(=O)=O (stereo not shown) [II-456, N-((1-(6-(6-(Difluoromethyl)imidazo[1,2-b]pyridazin-3-yl)pyrimidin-4-yl)piperidin-3-yl)methyl)-2-(dimethylamino)-N-(methylsulfonyl)acetamide] | 0.01 to 1 µM | < 0.5 µM | – | – | –
CC1C(CNS(C)(=O)=O)CC(F)(F)CN1c1cc(-c2cnc3ccc(C(F)F)nn23)ncn1 (single isomer, unassigned) [II-360, N-((1-(6-(6-(Difluoromethyl)imidazo[1,2-b]pyridazin-3-yl)pyrimidin-4-yl)-5,5-difluoro-2-methylpiperidin-3-yl)methyl)methanesulfonamide] | 0.01 to 1 µM | 0.5 to 5 µM | – | – | –
FC(F)(F)c1ccc2ncc(-c3ccnc(N4CCCC(c5c[nH]cn5)C4)c3)n2n1 (stereo not shown) [II-741] | < 0.01 µM | < 0.5 µM | – | – | –
CC(=O)N1CCN(c2cc(-c3cnc4ccc(C(F)(F)F)nn34)ccn2)CC1 [II-223, 1-(4-(4-(6-(Trifluoromethyl)imidazo[1,2-b]pyridazin-3-yl)pyridin-2-yl)piperazin-1-yl)ethanone] | 0.01 to 1 µM | > 5 µM | – | – | –
O=C1CN(c2cc(-c3cnc4ccc(C(F)F)nn34)ccn2)CC2(CC2)N1 [II-160, 7-(4-(6-(Difluoromethyl)imidazo[1,2-b]pyridazin-3-yl)pyridin-2-yl)-4,7-diazaspiro[2.5]octan-5-one] | 0.01 to 1 µM | 0.5 to 5 µM | – | – | –
NS(=O)(=O)CC1CCCN(c2cc(-c3cnc4ccc(C(F)F)nn34)ccn2)C1 (stereo not shown) [II-144, (1-(4-(6-(Difluoromethyl)imidazo[1,2-b]pyridazin-3-yl)pyridin-2-yl)piperidin-3-yl)methanesulfonamide] | 0.01 to 1 µM | 0.5 to 5 µM | – | – | –
CS(=O)(=O)NC[C@@H]1CN(c2cc(-c3cnc4ccc(C(F)F)nn34)ncn2)CCO1 [II-34, (S)—N-((4-(6-(6-(Difluoromethyl)imidazo[1,2-b]pyridazin-3-yl)pyrimidin-4-yl)morpholin-2-yl)methyl)methanesulfonamide] | < 0.01 µM | < 0.5 µM | – | – | –
Cc1[nH]ncc1C1CCCN(c2ccnc(-c3cnc4cnc(C(F)(F)F)cn34)n2)C1 (single isomer, unassigned) [IV-471, 3-(4-(3-(5-Methyl-1H-pyrazol-4-yl)piperidin-1-yl)pyrimidin-2-yl)-6-(trifluoromethyl)imidazo[1,2-a]pyrazine] | – | – | 0.01 to 0.1 µM | > 5 µM | –
CC1CN(c2cc(-c3cnc4ccc(C(F)F)nn34)ccn2)CC(CNS(C)(=O)=O)C1(F)F (stereo not shown) [II-57, N-((1-(4-(6-(Difluoromethyl)imidazo[1,2-b]pyridazin-3-yl)pyridin-2-yl)-4,4-difluoro-5-methylpiperidin-3-yl)methyl)methanesulfonamide] | < 0.01 µM | 0.5 to 5 µM | – | – | –
NC(=O)C1CCCN(c2cc(-c3cnc4ccc(C(F)F)nn34)ncn2)C1 (stereo not shown) [II-378, 1-(6-(6-(Difluoromethyl)imidazo[1,2-b]pyridazin-3-yl)pyrimidin-4-yl)piperidine-3-carboxamide] | 0.01 to 1 µM | 0.5 to 5 µM | – | – | –
N#Cc1ccc2ncc(-c3cc(N4CCN5C(=O)CCCC5C4)ncn3)n2n1 (stereo not shown) [II-699, 3-(6-(6-Oxooctahydro-2H-pyrido[1,2-a]pyrazin-2-yl)pyrimidin-4-yl)imidazo[1,2-b]pyridazine-6-carbonitrile] | 0.01 to 1 µM | > 5 µM | – | – | –
CS(=O)(=O)NC[C@H]1CN(c2cc(-c3cnc4ccc(C(F)F)nn34)ncn2)C[C@@H](C(F)(F)F)O1 [II-306, N-(((2R,6S)-4-(6-(6-(Difluoromethyl)imidazo[1,2-b]pyridazin-3-yl)pyrimidin-4-yl)-6-(trifluoromethyl)morpholin-2-yl)methyl)methanesulfonamide] | 0.01 to 1 µM | 0.5 to 5 µM | – | – | –
C[C@@H]1CCCCN1c1cc(-c2cnc3ccc(C(F)F)nn23)ncn1 [II-354, (R)-6-(Difluoromethyl)-3-(6-(2-methylpiperidin-1-yl)pyrimidin-4-yl)imidazo[1,2-b]pyridazine] | 0.01 to 1 µM | > 5 µM | – | – | –
CC1C(CNS(C)(=O)=O)CCN1c1cc(-c2cnc3ccc(C(F)F)nn23)ncn1 (stereo not shown) [II-243, N-((1-(6-(6-(Difluoromethyl)imidazo[1,2-b]pyridazin-3-yl)pyrimidin-4-yl)-2-methylpyrrolidin-3-yl)methyl)methanesulfonamide] | 0.01 to 1 µM | 0.5 to 5 µM | – | – | –
Cc1[nH]ncc1C1CN(c2cc(-c3cnc4ccc(C(F)(F)F)nn34)ncn2)CC(C)O1 (stereo not shown) [II-762, 2-methyl-6-(5-methyl-1H-pyrazol-4-yl)-4-(6-(6-(trifluoromethyl)imidazo[1,2-b]pyridazin-3-yl)pyrimidin-4-yl)morpholine] | – | 0.5 to 5 µM | – | – | IC50 [1, 3]: 0.01 to 1 µM
NC(=O)C1CN(c2cc(-c3cnc4ccc(C(F)F)nn34)ncn2)c2ccccc21 (stereo not shown) [II-16, 1-(6-(6-(Difluoromethyl)imidazo[1,2-b]pyridazin-3-yl)pyrimidin-4-yl)indoline-3-carboxamide] | 0.01 to 1 µM | > 5 µM | – | – | –
Cc1[nH]ncc1C1CN(c2ccnc(-c3cnc4cnc(C(F)(F)F)cn34)n2)CC(C)N1 (single isomer, unassigned) [IV-459, 3-(4-(3-Methyl-5-(5-methyl-1H-pyrazol-4-yl)piperazin-1-yl)pyrimidin-2-yl)-6-(trifluoromethyl)imidazo[1,2-a]pyrazine] | – | – | 0.01 to 0.1 µM | 0.5 to 5 µM | –
CC1CN(c2cc(-c3cnc4ccc(C(F)F)nn34)ncn2)CC(CNS(C)(=O)=O)C12OCCO2 (stereo not shown) [II-527, N-((8-(6-(6-(Difluoromethyl)imidazo[1,2-b]pyridazin-3-yl)pyrimidin-4-yl)-10-methyl-1,4-dioxa-8-azaspiro[4.5]decan-6-yl)methyl)methanesulfonamide] | < 0.01 µM | < 0.5 µM | – | – | –
CC1CN(c2nccc(-c3cnc4cnc(C(F)(F)F)cn34)n2)C(C)C(c2cn[nH]c2)N1 (single isomer, unassigned) [IV-369, 3-(2-(2,5-Dimethyl-3-(1H-pyrazol-4-yl)piperazin-1-yl)pyrimidin-4-yl)-6-(trifluoromethyl)imidazo[1,2-a]pyrazine] | – | – | < 0.01 µM | 0.5 to 5 µM | –
Cc1n[nH]cc1C1CCCN(c2ccnc(-c3cnc4cnc(C(F)F)cn34)n2)C1 (single isomer, unassigned) [IV-468, 6-(Difluoromethyl)-3-(4-(3-(3-methyl-1H-pyrazol-4-yl)piperidin-1-yl)pyrimidin-2-yl)imidazo[1,2-a]pyrazine] | – | – | 0.01 to 0.1 µM | 0.5 to 5 µM | –
OCc1n[nH]cc1C1CCN(c2ccnc(-c3cnc4cnc(C(F)(F)F)cn34)n2)C1 (stereo not shown) [IV-573, (4-(1-(2-(6-(Trifluoromethyl)imidazo[1,2-a]pyrazin-3-yl)pyrimidin-4-yl)pyrrolidin-3-yl)-1H-pyrazol-3-yl)methanol] | – | – | 0.01 to 0.1 µM | 0.5 to 5 µM | –
Cc1n[nH]cc1[C@@H]1C[C@@H](O)CN(c2ccnc(-c3cnc4cnc(C(F)(F)F)cn34)n2)C1 [IV-775, (3R,5S)-5-(3-methyl-1H-pyrazol-4-yl)-1-(2-(6-(trifluoromethyl)imidazo[1,2-a]pyrazin-3-yl)pyrimidin-4-yl)piperidin-3-ol] | – | – | – | > 5 µM | IC50 ([1]; compounds of Formula IV, 4 nM GCN2 kinase): 0.01 to 1 µM
